Reference: US5852007A, “Cysteine and serine protease inhibitors containing D-amino acid at the P2 position, methods of making same, and methods of using same” (priority 1997, dated 1998)
Read-outs that look alike come from different tables or passages of the source. Square brackets hold non-standard residues; d marks the D form. Peptide text beside a SMILES is read from it. * marks the point of attachment. ξ: configuration not given here. d(αMeF) = C[C@@](N)(Cc1ccccc1)C(=O)O; ξF = NC(Cc1ccccc1)C(=O)O; Bn = c1ccc(C*)cc1; Ms = CS(=O)(=O)*

How the values were obtained:
Assay type in all cases: biochemical
[1] = target: T1, Recombinant human calpain I (Homo sapiens, UniProt P07384); assay: Inhibition of calpain I activity
T1 construct: made in house
T1 sequence (P07384 1-714): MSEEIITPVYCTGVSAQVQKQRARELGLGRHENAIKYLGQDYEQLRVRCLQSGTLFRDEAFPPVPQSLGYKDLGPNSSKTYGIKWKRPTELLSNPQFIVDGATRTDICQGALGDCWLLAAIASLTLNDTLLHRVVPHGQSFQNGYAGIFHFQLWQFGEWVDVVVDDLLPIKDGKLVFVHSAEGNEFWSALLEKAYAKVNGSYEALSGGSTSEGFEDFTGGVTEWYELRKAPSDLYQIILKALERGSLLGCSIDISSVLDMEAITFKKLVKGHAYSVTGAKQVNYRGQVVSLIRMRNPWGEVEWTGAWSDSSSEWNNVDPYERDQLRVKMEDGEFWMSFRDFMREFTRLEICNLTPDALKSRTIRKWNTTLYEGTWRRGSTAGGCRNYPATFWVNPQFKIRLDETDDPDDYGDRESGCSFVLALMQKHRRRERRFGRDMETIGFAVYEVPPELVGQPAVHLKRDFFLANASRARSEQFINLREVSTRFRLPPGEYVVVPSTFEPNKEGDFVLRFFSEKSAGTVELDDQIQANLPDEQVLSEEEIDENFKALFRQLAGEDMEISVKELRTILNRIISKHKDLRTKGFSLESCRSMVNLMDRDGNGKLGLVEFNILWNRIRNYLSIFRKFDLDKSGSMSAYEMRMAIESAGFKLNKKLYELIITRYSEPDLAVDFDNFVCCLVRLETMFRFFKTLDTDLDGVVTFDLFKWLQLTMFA
Procedure: To evaluate inhibitory activity, stock solutions (40 times concentrated) of exemplary compounds of the invention were prepared in 100% anhydrous DMSO and 5 μL of each inhibitor preparation were aliquoted into each of three wells of a 96-well plate. Recombinant human calpain I, prepared by the method of Meyer et al. (Biochem. […] To start the reaction, 20 μL of 50 mM CaCl2 in assay buffer was added to all wells of the plate, excepting three, which were used as background signal baseline controls. Substrate hydrolysis was monitored every 5 minutes for a total of 30 minutes. […] Inhibition of calpain I activity was calculated as the percent decrease in the rate of substrate hydrolysis in the presence of inhibitor (VI) relative to the rate in its absence (VO). Comparison between VO and VI was made within the linear range for substrate hydrolysis. For screening, compounds were tested at 10, 1.0, and 0.1 μM. […] The results were plotted as % inhibition versus log inhibitor concentration and the IC50 was calculated from linear regression of the data. Apparent second order rate constants were determined from analysis of reaction progress curves under pseudo-first order conditions. Each determination represents the means of three or more independent single cuvette analyses continually monitored via a Perkin-Elmer LS50B spectrofluorimeter. The rate of inhibition of hydrolysis was obtained by fitting the curve to the exponential equation (1): […]

cathepsin B = target: T2, cathepsin B (Homo sapiens, UniProt P07858); assay: Inhibition of cathepsin B; conditions: Table III; for inhibition at 1 µM: read-out: Cat B % I @ 1 uM; for IC50: read-out: Cat B IC50
T2 construct: purchased Calbiochem 219364
Procedure: (§1) Additionally,the order of reagents added to the plate was altered because both enzymes are constitutively active. Following inhibitor addition to the plates, appropriate 2× concentrated stock dilutions of the enzyme preparations were made in assay buffer and 100 μl added to each well. The assay was initiated by addition of 100 μl of 2× concentrated stock dilution of substrate in assay buffer.

cathepsin L = target: T3, cathepsin L (Homo sapiens, UniProt P07711); assay: Inhibition of cathepsin L; conditions: for inhibition at 1 µM: Table III, read-out: Cat L % I @ 1 uM
T3 construct: purchased Calbiochem 219402
T3 sequence (P07711 114-288 limits assumed): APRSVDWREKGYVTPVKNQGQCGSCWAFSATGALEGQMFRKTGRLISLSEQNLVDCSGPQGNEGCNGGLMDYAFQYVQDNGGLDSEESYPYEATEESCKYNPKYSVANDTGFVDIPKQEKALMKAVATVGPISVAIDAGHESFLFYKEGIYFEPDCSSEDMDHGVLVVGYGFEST
T3 sequence (P07711 292-333 limits assumed): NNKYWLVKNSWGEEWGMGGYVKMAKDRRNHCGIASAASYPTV
Procedure: as §1

thrombin = target: T4, thrombin (Homo sapiens, UniProt P00734); assay: Inhibition of thrombin; conditions: 10 uM, read-out: Thrombin % I @ 10 uM
T4 construct: purchased Sigma Chem. Co. T-7009

α-chymotrypsin = target: T5, α-chymotrypsin (Bos taurus, UniProt P00766); assay: Inhibition of α-chymotrypsin; conditions: 10 uM, read-out: Chymotrypsin % I @ 10 uM
T5 construct: purchased Sigma Chem. Co. C-3142
Procedure: Additionally, because α-chymotrypsin is not a calcium sensitive enzyme and is constitutively active, following addition of inhibitor stocks to the 96 well plates, 100 μl of a 2-fold concentrated stock of enzyme in dilution buffer was first added and the reaction started by addition of 100 μl of a 2-fold concentrated stock of substrate in assay buffer. Substrate hydrolysis was monitored every 5 minutes up to 30 minutes using a Fluoroskan II ([…]).

IC50 ([1]; Table III) [nM]	inhibition at 0.1 µM ([1]; Table III) [%]	inhibition at 1 µM (cathepsin B) [%]	inhibition at 1 µM (cathepsin L) [%]	inhibition at 10 µM (thrombin; Table III) [%]	inhibition at 10 µM (α-chymotrypsin; Table III) [%]	IC50 (cathepsin B) [nM]	IC50 ([1]; Table II) [nM]	IC50 (cathepsin L; Table II, read-out: Cat L IC50) [nM]	inhibition at 10 µM (thrombin; Table II) [%]	inhibition at 10 µM (α-chymotrypsin; Table II) [%]	Structure (SMILES)
8	95	92	100	7	16	–	–	–	–	–	CS(=O)(=O)N[C@H](CSCc1ccccc1)C(=O)N[C@H](C=O)Cc1ccccc1 [Compound 106] (Ms-[dC](Bn)-Phe-aldehyde)
–	9	45	71	0	10	–	–	–	–	–	C[C@](Cc1ccccc1)(NS(C)(=O)=O)C(=O)NC(C=O)Cc1ccccc1 (some centres unmarked) [Compound 105] (Ms-[d(αMeF)]-[ξF]-aldehyde)
14	95	100	100	12	16	–	–	–	–	–	O=C[C@H](Cc1ccccc1)NC(=O)[C@@H](Cc1c[nH]c2ccccc12)NS(=O)(=O)c1cccs1 [Compound 73]
20	91	100	99	10	2	–	–	–	–	–	O=C[C@H](Cc1ccccc1)NC(=O)[C@@H](Cc1ccccc1)NS(=O)(=O)c1cccs1 [Compound 75]
75	41	–	100	1	40	–	–	–	–	–	Cn1cnc(S(=O)(=O)N[C@H](COCc2ccccc2)C(=O)N[C@H](C=O)Cc2ccccc2)c1 [Compound 63]
8	96	98	100	16	49	16	–	–	–	–	CS(=O)(=O)N[C@@H](C(=O)N[C@H](C=O)Cc1ccccc1)c1cccs1 [Compound 98]
93	40	88	91	5	0	–	–	–	–	–	CC(C)C[C@@H](C=O)NC(=O)[C@@H](COCc1ccccc1)NS(C)(=O)=O [Compound 88] (Ms-[dS](Bn)-Leu-aldehyde)
9	91	96	98	6	2	–	–	–	–	–	CN(C)S(=O)(=O)N[C@H](COCc1ccccc1)C(=O)N[C@H](C=O)Cc1ccccc1 [Compound 47]
37	79	89	100	4	25	–	–	–	–	–	CS(=O)(=O)N[C@H](C(=O)N[C@H](C=O)Cc1ccccc1)c1cccs1 [Compound 97]

Continued, compound first:

Structure (SMILES)	IC50 ([1]; Table III) [nM]	inhibition at 0.1 µM ([1]; Table III) [%]	inhibition at 1 µM (cathepsin B) [%]	inhibition at 1 µM (cathepsin L) [%]	inhibition at 10 µM (thrombin; Table III) [%]	inhibition at 10 µM (α-chymotrypsin; Table III) [%]	IC50 (cathepsin B) [nM]	IC50 ([1]; Table II) [nM]	IC50 (cathepsin L; Table II, read-out: Cat L IC50) [nM]	inhibition at 10 µM (thrombin; Table II) [%]	inhibition at 10 µM (α-chymotrypsin; Table II) [%]
CS(=O)(=O)N[C@H](COCc1ccccc1)C(=O)N[C@@H](Cc1ccccc1)C1OCCS1 (some centres unmarked) [Compound 131]	–	6	21	55	11	0	–	–	–	–	–
CC(C)C[C@@H](C=O)NC(=O)[C@@H](CC(C)C)NS(C)(=O)=O [Compound 87]	95	23	86	96	–	–	–	–	–	–	–
CCNC(=O)C(=O)[C@H](Cc1ccccc1)NC(=O)[C@@H](COCc1ccccc1)NS(C)(=O)=O [Compound 81]	180	18	73	100	0	2	–	–	–	–	–
CS(=O)(=O)N[C@H](COCc1ccccc1)C(=O)N[C@@H](Cc1ccccc1)C(O)OCc1ccccc1 (some centres unmarked) [Compound 135]	11	91	98	100	0	4	–	–	–	–	–
CC(C)(C)OC(=O)N1CCCC[C@H](NC(=O)[C@@H](COCc2ccccc2)N(C(=O)OC(C)(C)C)S(C)(=O)=O)C1=O [Compound 127]	–	6	36	7	0	1	–	–	–	–	–
O=C[C@H](Cc1ccccc1)NC(=O)[C@@H](COCc1ccccc1)NC(=O)C(c1ccccc1)c1ccccc1 [Compound 45]	85	55	100	100	7	5	–	–	–	–	–
CS(=O)(=O)N[C@H](COCc1ccccc1)C(=O)N[C@H](C=O)CCCCNC(=O)OCc1ccccc1 [Compound 92]	4	100	100	100	0	0	–	–	–	–	–
Cc1ccc(S(=O)(=O)N[C@H](COCc2ccccc2)C(=O)N[C@H](C=O)Cc2ccccc2)cc1 [Compound 49]	27	75	99	100	4	1	–	–	–	–	–
Cc1ccc(S(=O)(=O)O[C@H]2C[C@H](C(=O)N[C@H](C=O)Cc3ccccc3)N(S(=O)(=O)c3ccccc3)C2)cc1 [Compound 113]	–	11	47	94	0	0	–	–	–	–	–
Cc1ccc(S(=O)(=O)O[C@@H]2C[C@H](C(=O)N[C@H](C=O)Cc3ccccc3)N(S(=O)(=O)c3ccc(C)cc3)C2)cc1 [Compound 121]	–	28	83	17	3	18	–	–	–	–	–
O=C[C@H](Cc1ccccc1)NC(=O)[C@@H](COCc1ccccc1)NS(=O)(=O)c1ccccc1 [Compound 48]	31	87	99	100	3	0	11	–	–	–	–
CS(=O)(=O)N[C@H](COCc1ccccc1)C(=O)N[C@@H](Cc1ccccc1)C(O)CCc1ccccc1 (some centres unmarked) [Compound 124]	–	20	27	17	2	0	–	–	–	–	–
O=C[C@H](Cc1ccccc1)NC(=O)[C@H]1C[C@@H](OS(=O)(=O)c2ccccc2)CN1S(=O)(=O)c1ccccc1 [Compound 112]	–	7	25	100	0	9	–	–	–	–	–
CC(=O)Nc1ccc(S(=O)(=O)N2CCC[C@@H]2C(=O)N[C@H](C=O)Cc2ccccc2)cc1 [Compound 103]	71	37	40	56	3	26	–	–	–	–	–
CC(C)(C)OC(=O)N[C@H](CC(=O)N1CCc2ccccc2C1)C(=O)N[C@H](C=O)Cc1ccccc1 [Compound 8, (R)-2-THIQ-C(=O)CH2 CH(NHBoc)C(=O)-Phe--H]	–	–	–	–	–	–	–	~20000	24000	0	32
